The values that follow come from patent publication US20030083325A1, “Serotonin antagonists” (priority 1992, published 2003).

pIC50: −log10 of the molar value. Structures can show the parent of a compound that is named as a salt.

The first test deals with thrombus formation.
Assay: not given
Particulars: canine models; cited from earlier work.
On to `O=C(c1ccc(F)cc1)C1CCN(CCn2c(=O)[nH]c3ccccc3c2=O)CC1` [Ketanserin], for which the “prevention of thrombus formation” value is reported as “extremely effective in preventing thrombus formation”.

For another test, the system named is preference for alcohol and cocaine.
Assay: not given
Conditions: rodent model of drug abuse; cited from earlier work.
Take `Cc1nc2sccn2c(=O)c1CCN1CCC(=C(c2ccc(F)cc2)c2ccc(F)cc2)CC1` [ritanserin]: the “preference for alcohol and cocaine” value was “abolished the preference for both alcohol and cocaine”.

The next test concerns coronary vessel constriction.
Assay: not given
Conditions: patients with stable angina; cited from earlier work.
Turning to `O=C(c1ccc(F)cc1)C1CCN(CCn2c(=O)[nH]c3ccccc3c2=O)CC1` [Ketanserin], the coronary vessel constriction result is reported as “blocked coronary vessel constriction”.

For another test, the target named is T1, 5HT2 receptor (Rattus norvegicus, UniProt P14842).
T1 construct: from tissue
T1 sequence (P14842 whole entry): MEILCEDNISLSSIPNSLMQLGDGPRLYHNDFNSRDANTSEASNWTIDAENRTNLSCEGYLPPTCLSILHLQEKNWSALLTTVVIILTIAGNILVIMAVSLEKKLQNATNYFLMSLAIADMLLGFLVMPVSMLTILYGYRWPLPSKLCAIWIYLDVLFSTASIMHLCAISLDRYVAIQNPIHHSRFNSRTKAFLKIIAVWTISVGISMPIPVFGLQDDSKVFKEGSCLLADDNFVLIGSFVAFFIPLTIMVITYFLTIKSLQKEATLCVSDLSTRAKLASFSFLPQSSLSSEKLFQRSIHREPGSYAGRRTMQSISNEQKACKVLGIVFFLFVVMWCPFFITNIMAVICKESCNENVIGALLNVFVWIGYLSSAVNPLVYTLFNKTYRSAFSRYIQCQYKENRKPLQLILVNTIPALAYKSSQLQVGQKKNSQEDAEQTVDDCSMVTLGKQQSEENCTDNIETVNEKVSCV
In words: spiroperidol binding test (5HT2 binding affinity). Conditions: [3H] spiroperidol binding; concentration of compound at 50% inhibition. An excerpt:
As noted above, the compounds of Formula I are serotonin 5HT2 antagonists. […] In this test, 5HT2 receptors are exposed to both [^3H] spiroperidol, (a substance known to have a specific affinity for the receptor) and the test compound. The extent to which there is a decrease in binding of the [^3H] spiroperidol to the receptor is indicative of the affinity of the test compound for the 5HT2 receptor.
d) any reference to “5HT2 binding affinity” refers to the spiroperidol binding test as described by Peroutka et al., in Mol.Pharmacol., Vol. 16, pages 687-699 (1979).
`O=C(CN1CCC(CN2C(=O)c3cccc4cccc(c34)C2=O)CC1)c1ccc(F)cc1` [Example 9, 2-[[1-[2-(4-fluorophenyl)-2-oxoethyl]-4-piperidinyl]methyl]-1H-benz[de]isoquinoline-1,3(2H)-dione monohydrochloride] gave a negative-log IC50 (pIC50) of 7.02.

`O=C(CN1CCC(CN2C(=O)c3cccc(F)c3C2=O)CC1)c1ccc(F)cc1` [Example 11, 2-[[1-[2-(4-fluorophenyl)-2-oxoethyl]-4-piperidinyl]methyl]-4-fluoro-1H-isoindole-1,3(2H)-dione monohydrochloride] gave a pIC50 of 7.48.

Compound `Cc1ccc2c(c1)C(=O)N(CC1CCN(CC(=O)c3ccc(F)cc3)CC1)C2=O` [Example 8, 2-[[1-[2-(4-fluorophenyl)-2-oxoethyl]-4-piperidinyl]methyl]-5-methyl-1H-isoindole-1,3(2H)-dione monohydrochloride] gave a pIC50 of 6.94. This pIC50 lies 0.54 log units lower than the previous one.

As for `O=C(CN1CCC(CN2C(=O)[C@@H]3CCCC[C@H]3C2=O)CC1)c1ccc(F)cc1` (relative stereo) [Example 5, trans-2-[[1-[2-(4-fluorophenyl)-2-oxoethyl]-4-piperidinyl]methyl]hexahydro-1H-isoindole-1,3(2H)-dione monohydrochloride], the pIC50 is 7.12.

Consider `O=C(CN1CCC(Cn2c(=O)[nH]c3ccccc3c2=O)CC1)c1ccc(F)cc1` [Example 12, 2-[[1-[2-(4-fluorophenyl)-2-oxoethyl]-4-piperidinyl]methyl]-benzoyleneurea], for which the pIC50 is 7.83.

`O=C(CN1CCC(CN2C(=O)C3C4C=CC(CC4)C3C2=O)CC1)c1ccc(F)cc1` (stereo not drawn) [Example 1, 2-[[1-[2-(4-fluorophenyl)-2-oxoethyl]-4-piperidinyl]methyl]-3a,4,7,7a-tetrahydro-4,7-ethano-1H-isoindole-1,3(2H)-dione monohydrochloride] showed a pIC50 of 7.32.

For `O=C(CN1CCC(CN2C(=O)[C@H]3CCCC[C@H]3C2=O)CC1)c1ccc(F)cc1` [Example 4, cis-2-[[1-[2-(4-fluorophenyl)-2-oxoethyl]-4-piperidinyl]methyl]hexahydro-1H-isoindole-1,3(2H)-dione monohydrochloride], the pIC50 is 6.79.

The compound `O=C(CN1CCC(CN2C(=O)c3ccccc3C2=O)CC1)c1ccc(F)cc1` [Example 2, 2-[[1-[2-(4-fluorophenyl)-2-oxoethyl]-4-piperidinyl]methyl]-1H-isoindole-1,3(2H)-dione] had a pIC50 of 7.89. This pIC50 lies 1.10 log units higher than the previous one.

Compound `O=C(CN1CCC(CN2C(=O)c3ccccc3C2=O)CC1)c1ccccc1` [Example 10, 2-[[1-[2-phenyl-2-oxoethyl]-4-piperidinyl]methyl]-1H-isoindole-1,3(2H)-dione monohydrochloride] gave a pIC50 of 7.89.

In the case of `O=C(CN1CCC(CN2C(=O)C3CC=CCC3C2=O)CC1)c1ccc(F)cc1` (stereo not drawn) [Example 3, 2-[[1-[2-(4-fluorophenyl)-2-oxoethyl]-4-piperidinyl]methyl]-3a,4,7,7a-tetrahydro-1H-isoindole-1,3(2H)-dione monohydrohydrochloride], the pIC50 was 6.69.

Consider `O=C(CN1CCC(CN2C(=O)C(c3ccccc3)=C(c3ccccc3)C2=O)CC1)c1ccc(F)cc1` [Example 7, 1-[[1-[2-(4-fluorophenyl)-2-oxoethyl]-4-piperidinyl]methyl]-3,4-diphenyl-1H-pyrrole-2,5-dione monohydrohydrochloride], for which the pIC50 was 6.51.

Consider `O=C(CN1CCC(CN2C(=O)C3C4C=CC(C4)C3C2=O)CC1)c1ccc(F)cc1` (stereo not drawn) [Example 6, 2-[[1-[2-(4-fluorophenyl)-2-oxoethyl]-4-piperidinyl]methyl]-3a,4,7,7a-tetrahydro-4,7-methano-1H-isoindole-1,3(2H)-dione monohydrochloride], for which the pIC50 is 6.76.
